Data published in ChEMBL document CHEMBL3046407, “Toxicity of monoterpenes against larvae and adults of Colorado potato beetle, Leptinotarsa decemlineata Say (Coleoptera: Chrysomelidae)” (2007).

What was measured:
Assay type in all cases: functional
[1] = test system: Leptinotarsa decemlineata; experiment: Insecticidal activity against second-instar larval stage of Leptinotarsa decemlineata infested potato leaves assessed as mortality at 20 ul after 96 hr (reference value: 3.3 +/- 3.3%)
[2] = test system: Leptinotarsa decemlineata; experiment: Insecticidal activity against second-instar larval stage of Leptinotarsa decemlineata infested potato leaves assessed as mortality at 20 ul after 48 hr (reference value: 3.3 +/- 3.3%)
[3] = test system: Leptinotarsa decemlineata; experiment: Insecticidal activity against second-instar larval stage of Leptinotarsa decemlineata infested potato leaves assessed as mortality at 20 ul after 24 hr (reference value: 3.3 +/- 3.3%)
[4] = test system: Leptinotarsa decemlineata; experiment: Insecticidal activity against second-instar larval stage of Leptinotarsa decemlineata infested potato leaves assessed as mortality at 10 ul after 12 hr relative to control
[5] = test system: Sitophilus granarius; experiment: Insecticidal activity against Sitophilus granarius (granary weevil) assessed as mortality
[6] = test system: Leptinotarsa decemlineata; experiment: Insecticidal activity against adult Leptinotarsa decemlineata infested potato leaves assessed as mortality at 20 ul after 96 hr relative to control
[7] = test system: Leptinotarsa decemlineata; experiment: Insecticidal activity against adult Leptinotarsa decemlineata infested potato leaves assessed as mortality at 20 ul after 48 hr relative to control
[8] = test system: Leptinotarsa decemlineata; experiment: Insecticidal activity against adult Leptinotarsa decemlineata infested potato leaves assessed as mortality at 20 ul after 24 hr relative to control
[9] = test system: Leptinotarsa decemlineata; experiment: Insecticidal activity against adult Leptinotarsa decemlineata infested potato leaves assessed as mortality at 20 ul after 12 hr relative to control
[10] = test system: Leptinotarsa decemlineata; experiment: Insecticidal activity against adult Leptinotarsa decemlineata infested potato leaves assessed as mortality at 10 ul after 96 hr relative to control
[11] = test system: Leptinotarsa decemlineata; experiment: Insecticidal activity against adult Leptinotarsa decemlineata infested potato leaves assessed as mortality at 10 ul after 48 hr relative to control
[12] = test system: Leptinotarsa decemlineata; experiment: Insecticidal activity against adult Leptinotarsa decemlineata infested potato leaves assessed as mortality at 10 ul after 24 hr relative to control
[13] = test system: Leptinotarsa decemlineata; experiment: Insecticidal activity against adult Leptinotarsa decemlineata infested potato leaves assessed as mortality at 10 ul after 12 hr relative to control
[14] = test system: Leptinotarsa decemlineata; experiment: Insecticidal activity against second-instar larval stage of Leptinotarsa decemlineata infested potato leaves assessed as mortality at 20 ul after 12 hr relative to control
[15] = test system: Leptinotarsa decemlineata; experiment: Insecticidal activity against second-instar larval stage of Leptinotarsa decemlineata infested potato leaves assessed as mortality at 10 ul after 96 hr (reference value: 3.3 +/- 3.3%)
[16] = test system: Leptinotarsa decemlineata; experiment: Insecticidal activity against second-instar larval stage of Leptinotarsa decemlineata infested potato leaves assessed as mortality at 10 ul after 48 hr (reference value: 3.3 +/- 3.3%)
[17] = test system: Leptinotarsa decemlineata; experiment: Insecticidal activity against second-instar larval stage of Leptinotarsa decemlineata infested potato leaves assessed as mortality at 10 ul after 24 hr (reference value: 3.3 +/- 3.3%)
[18] = test system: Leptinotarsa decemlineata; experiment: Insecticidal activity against first-instar larval stage of Leptinotarsa decemlineata infested potato leaves assessed as mortality at 20 ul after 96 hr relative to control
[19] = test system: Leptinotarsa decemlineata; experiment: Insecticidal activity against first-instar larval stage of Leptinotarsa decemlineata infested potato leaves assessed as mortality at 20 ul after 48 hr relative to control
[20] = test system: Leptinotarsa decemlineata; experiment: Insecticidal activity against first-instar larval stage of Leptinotarsa decemlineata infested potato leaves assessed as mortality at 20 ul after 24 hr relative to control
[21] = test system: Leptinotarsa decemlineata; experiment: Insecticidal activity against first-instar larval stage of Leptinotarsa decemlineata infested potato leaves assessed as mortality at 20 ul after 12 hr relative to control
[22] = test system: Leptinotarsa decemlineata; experiment: Insecticidal activity against first-instar larval stage of Leptinotarsa decemlineata infested potato leaves assessed as mortality at 10 ul after 96 hr relative to control
[23] = test system: Leptinotarsa decemlineata; experiment: Insecticidal activity against first-instar larval stage of Leptinotarsa decemlineata infested potato leaves assessed as mortality at 10 ul after 48 hr relative to control
[24] = test system: Leptinotarsa decemlineata; experiment: Insecticidal activity against first-instar larval stage of Leptinotarsa decemlineata infested potato leaves assessed as mortality at 10 ul after 12 hr relative to control
[25] = test system: Leptinotarsa decemlineata; experiment: Insecticidal activity against first-instar larval stage of Leptinotarsa decemlineata infested potato leaves assessed as mortality at 10 ul after 24 hr relative to control
[26] = test system: Leptinotarsa decemlineata; experiment: Insecticidal activity against third-instar larval stage of Leptinotarsa decemlineata infested potato leaves assessed as mortality at 20 ul after 96 hr (reference value: 3.3 +/- 3.3%)
[27] = test system: Leptinotarsa decemlineata; experiment: Insecticidal activity against third-instar larval stage of Leptinotarsa decemlineata infested potato leaves assessed as mortality at 20 ul after 48 hr (reference value: 3.3 +/- 3.3%)
[28] = test system: Leptinotarsa decemlineata; experiment: Insecticidal activity against third-instar larval stage of Leptinotarsa decemlineata infested potato leaves assessed as mortality at 20 ul after 24 hr relative to control
[29] = test system: Leptinotarsa decemlineata; experiment: Insecticidal activity against third-instar larval stage of Leptinotarsa decemlineata infested potato leaves assessed as mortality at 20 ul after 12 hr relative to control
[30] = test system: Leptinotarsa decemlineata; experiment: Insecticidal activity against third-instar larval stage of Leptinotarsa decemlineata infested potato leaves assessed as mortality at 10 ul after 96 hr (reference value: 3.3 +/- 3.3%)
[31] = test system: Leptinotarsa decemlineata; experiment: Insecticidal activity against third-instar larval stage of Leptinotarsa decemlineata infested potato leaves assessed as mortality at 10 ul after 48 hr (reference value: 3.3 +/- 3.3%)
[32] = test system: Leptinotarsa decemlineata; experiment: Insecticidal activity against third-instar larval stage of Leptinotarsa decemlineata infested potato leaves assessed as mortality at 10 ul after 24 hr relative to control
[33] = test system: Leptinotarsa decemlineata; experiment: Insecticidal activity against third-instar larval stage of Leptinotarsa decemlineata infested potato leaves assessed as mortality at 10 ul after 12 hr relative to control

SMILES	mortality [1] [%]	mortality [2] [%]	mortality [3] [%]	mortality [4] [%]	mortality [5] [%]	mortality [6] [%]	mortality [7] [%]	mortality [8] [%]	mortality [9] [%]	mortality [10] [%]	mortality [11] [%]	mortality [12] [%]	mortality [13] [%]	mortality [14] [%]	mortality [15] [%]	mortality [16] [%]	mortality [17] [%]	mortality [18] [%]	mortality [19] [%]	mortality [20] [%]	also measured
CC(C)[C@H]1CC[C@H](C)CC1=O (relative stereo) [REL-MENTHONE]	56.7	56.7	53.3	13.3	90	100	100	100	83.3	100	100	93.3	70	26.7	36.7	33.3	33.3	66.7	56.7	53.3	mortality [21]: 26.7%; mortality [22]: 50%; mortality [23]: 40%; mortality [24]: 6.7%; mortality [25]: 23.3%; mortality [26]: 50%; mortality [27]: 43.3%; mortality [28]: 30%; mortality [29]: 23.3%; mortality [30]: 56.7%; mortality [31]: 53.3%; mortality [32]: 50%; mortality [33]: 30%
C=C(C)[C@H]1CC=C(C)CC1 [D-LIMONENE]	90	80	80	53.3	90	100	100	100	90	100	100	100	83.3	76.7	93.3	90	86.7	90	80	76.7	mortality [21]: 43.3%; mortality [22]: 90%; mortality [23]: 83.3%; mortality [24]: 23.3%; mortality [25]: 50%; mortality [26]: 70%; mortality [27]: 63.3%; mortality [28]: 60%; mortality [29]: 33.3%; mortality [30]: 53.3%; mortality [31]: 50%; mortality [32]: 46.7%; mortality [33]: 0%
